Reference: article PMC8564487, “MHC-Optimized Peptide Scaffold for Improved Antigen Presentation and Anti-Tumor Response” (Frontiers in Immunology, 2021)

Assays:
Format in all cases: in vivo, C57BL/6 mice
[1] = system: B16F10 tumors; experiment: Tumor necrosis rate (H&E) in B16F10 tumors; conditions: H&E staining
Procedure: Finally, tumor necrosis rates were evaluated for each tumor lesion. The slides were stained with hematoxylin and eosin and then subjected to reading and determination of areas of necrosis. For percentage of necrosis through the tumor mass, was used the following formula: …
%necrosis area: (necrosis area/total tumoral mass area)∗100

[2] = system: B16F10 tumors; experiment: IHC of tumor-infiltrating lymphocytes in B16F10 tumors; conditions: B16F10 tumors at sacrifice, Trp2 groups, Central Tumor
From the text: Formalin-Fixed Paraffin-Embedded (FFPE) sections were stained with CD3+, FoxP3 and Granzime B antibodies manually. Visualization of the antibody–antigen reaction was visualized by anti-alkaline phosphatase methods using Vulcan fast red (Biocare Medical FR805S) as the chromogenic substrate. Finally, sections were weakly counterstained with hematoxylin and mounted.
Lymphocyte densities (cells/mm2) were quantified in the tumor (CT) and invasive margin (IM) by digital pathology. The slides were scanned with Aperio AT2 (Leica) and the areas (CT, IM) were selected by an experienced pathologist (MDB). Finally, the acquired images were quantified using QuPath 0.2.3.
To evaluate the balance between cytotoxic and immune suppressive activity of B16 tumor model a formula considering the numerical difference between the GrzB+ cells (cytotoxic cells) and the FOXP3+ cells (immunosuppressive cells), on total CD3+ cells, was applied. The formula is schematized as:
Ratio=(# of GRZB−# of FOXP3)/# of CD3.

[3] = system: splenocytes; experiment: IFN-γ EliSpot cross-reactivity between wt and htcPep after immunization; conditions: mice immunized with NAL peptide, splenocytes re-stimulated with the labelled peptide
Procedure: C57BL/6 mice were immunized with the different htcPep. In particular, each group of animals (6 for each group) were injected by sub-cutaneous (s.c.) route with 100 µg of WT, INC (mix of selected htcPep), NAL or MIX peptides (peptide library) respectively, emulsified with 50 μg of Polyinosinic:polycytidylic acid [poly(I:C); InvivoGen] adjuvant formulated in PBS (200ul total volume). Each group received weekly the peptide vaccine in combination with metronomic chemotherapy (MCT) and ICI. One group was treated only with MCT and ICI (MCT + ICI group). Control mice were treated with endotoxin-free phosphate-buffered saline (PBS). Splenocytes were re-stimulated ex-vivo O/N with the different peptides in an IFN-γ EliSpot assay.
ELISPOT was performed according to BD Biosciences manufacturer instructions (BD ELISPOT Mouse IFN-γ ELISPOT Set cod. 551083). 5x10^5 splenocytes or 2 x10^5 tumor infiltrated lymphocytes (TIL) were counted and plated in each well. […]
Both splenocytes and TILs were stimulated with 10ug/ml of single or peptide pool used for the immunization and incubated for 24-26h. […] The plates were read with an AID EliSpot Reader Systems (AID GmbH, Strassberg, Germany). The results were calculated as spot forming counts as a mean of a duplicate count from the specific antigen stimulation minus the negative control.

In the case of “Trp2 wt: wild type Trp2 H-2Db epitope expressed by B16F10 melanoma cells (SVYDFFVWL; Trp2 H-2Db epitope; UniProt P29812 180-188, looked up, fragment)”, the “% of necrosis (necrosis area/total tumoral mass area)” value [1] is reported as 10% and the “Average number of FOXP3+ T cells, CT area” value [2] is reported as 2.8.
In the case of “D4W: heteroclitic Trp2 peptide with Tryptophan substitution at position 4 (SVYWFFVWL; UniProt P29812 180-188, looked up, variant D183W)”, the “T cell cross-reactivity of NAL-immunized animals with challenging htcPep” value ([3]; Trp2 series) is reported as “strongest T cells cross-reactivity”.
In the case of “Y4W: heteroclitic E7 peptide with Tryptophan substitution at position 4 (RAHWNIVTF; UniProt P03129 49-57, looked up, variant Y52W)”, the “T cell cross-reactivity of NAL-immunized animals with challenging htcPep” value ([3]; HPV-E7 series) is reported as “strongest T cells cross-reactivity”.
